Measured values as given in PubChem BioAssay AID2060513 (Molecular Pharmacology Branch, DTP, NCI, 2025).

Tested on: 299254-011-R-J1-PDC complex spheroids viability
Test: Anticancer human tumor 299254-011-R-J1-PDC patient-derived melanoma cell line growth inhibition [GQUAD]
Details: for IC50: curve of first compound; for viability, T/C: stronger effect = lower value
Description: DNA G-quadruplex Stabilizer Agents in Combinations in Complex Spheroids
A high-throughput screen of multi-cell type tumor spheroids was designed to identify active combinations of DNA G-quadruplex stabilizer agents and targeted small molecules. Complex spheroids include a stromal component modeled by human endothelial cells (HUVEC) and fibroblasts modeled by human mesenchymal stem cells (MSCs). The concentration ranges selected for each drug and investigational agent were based upon clinically achievable concentrations if the clinical Cmax of the agent was known.
Compounds. The drugs and investigational agents: pidnarulex (CX-5461; NSC782164), APTO-253 (NSC789042), BRACO-19 (NSC847499), peposertib (NSC802822), ceralasertib (NSC780249), elimusertib (NSC800525), camonsertib (NSC841442), AZD-1390 (NSC803789), olaparib (NSC753686), talazoparib (NSC767125), ART-558 (NSC835418), sotorasib (NSC818433), MRTX-1133 (NSC836407), SN-38 (NSC673596), topotecan (NSC609699), etoposide (NSC141540), doxorubicin (NSC123127), gemcitabine (NSC613327), 5-fluorouracil (NSC19893), paclitaxel (NSC125973), vemurafenib (NSC761431), panobinostat (NSC761190), R-306465 (JNJ-16241199; NSC773264), adavosertib (NSC754352), TP-3654 (NSC805149), carboplatin (NSC241240), KSQ-4279 (NSC840948), and staurosporine (NSC755774) were obtained from the National Cancer Institute (NCI) Developmental Therapeutics Program Chemical Repository (34). The FDA-approved anticancer drug set is available from the NCI Developmental Therapeutics Program. […] The stock solutions were prepared in dimethyl sulfoxide (DMSO, Sigma-Aldrich, St. Louis, MO, cat. D2650) at 800-fold the tested concentration and stored at -70 degrees C prior to their use. All drugs and investigational agents were tested over a range starting from a high concentration at or near the clinical Cmax and decreasing in half-log increments. If the clinical Cmax for an agent had not been determined, the highest concentration tested was 10 microM.
2.3 Cell Culture. All cells were maintained in an incubator at 37 degrees C and 5% CO2 with 95% humidity. The PDC lines were cultured according to standard operating procedures established by the NCI PDMR. All PDCs were thawed and cultured in Matrigel-coated flasks prepared with a working solution of 1X Ham's F-12 nutrient mix, without supplementation (Invitrogen, cat. 11765054), 100 U/mL penicillin-streptomycin (Invitrogen, cat. 15140122), and 2.5% Matrigel (Corning Inc., cat. 354248) for the first three passages. The 857933-349-R-J2-PDC line was cultured in 6C/Colon 1B media, which includes advanced DMEM/F-12 (Thermo Fisher Scientific, cat. 12634028), 10 mM HEPES (Thermo Fisher Scientific, cat. 15630080), 1X GlutaMAX supplement (Thermo Fisher Scientific, cat. 35050061), 0.1 mg/mL primocin (InvivoGen, cat. ant-pm-2), 10% defined fetal bovine serum, heat inactivated (HyClone Laboratories Inc., cat. SH30070.03HI), 50% L-WRN conditioned media (ATCC, cat. CRL-3276), 1.25 mM N-Acetyl-L-cysteine (Sigma-Aldrich, cat. A9165), 10 mM nicotinamide (Sigma-Aldrich, cat. N0636), 1X B-27 supplement (Thermo Fisher Scientific, cat. 17504044), 1X N-2 supplement (Thermo Fisher Scientific, cat. 17502048), 10 microM Y-27632 dihydrochloride (Tocris Bioscience, cat. 1254), and 50 ng/mL human EGF recombinant protein (Thermo Fisher Scientific, cat. PHG0311). The 485176-168-R4-J1-PDC line was cultured in Panc media, which includes all 6C/Colon 1B media components plus 100 ng/mL human FGF-10 (Thermo Fisher Scientific, cat. 100-26), 500 nM SB-431542 (Selleckchem, cat. S1067), and gastrin (Tocris, cat. 3006).
[…]

[1] = second compound 0.0316 µM, first compound 0.000999 µM
[2] = second compound 0.0316 µM, first compound 0.00316 µM
[3] = second compound 0.0316 µM, first compound 0.00999 µM
[4] = second compound 0.0316 µM, first compound 0.0316 µM
[5] = second compound 0.0316 µM, first compound 0.0999 µM
[6] = second compound 0.0316 µM, first compound 0.316 µM
[7] = second compound 0.1 µM, first compound 0.000999 µM
[8] = second compound 0.1 µM, first compound 0.00316 µM
[9] = second compound 0.1 µM, first compound 0.00999 µM
[10] = second compound 0.1 µM, first compound 0.0316 µM
[11] = second compound 0.1 µM, first compound 0.0999 µM
[12] = second compound 0.1 µM, first compound 0.316 µM
[13] = second compound 0.316 µM, first compound 0.000999 µM
[14] = second compound 0.316 µM, first compound 0.00316 µM
[15] = second compound 0.316 µM, first compound 0.00999 µM
[16] = second compound 0.316 µM, first compound 0.0316 µM
[17] = second compound 0.316 µM, first compound 0.0999 µM
[18] = second compound 0.316 µM, first compound 0.316 µM
[19] = second compound 1 µM, first compound 0.000999 µM
[20] = second compound 1 µM, first compound 0.00316 µM
[21] = second compound 1 µM, first compound 0.00999 µM
[22] = second compound 1 µM, first compound 0.0316 µM
[23] = second compound 1 µM, first compound 0.0999 µM
[24] = second compound 1 µM, first compound 0.316 µM
[25] = second compound 3.16 µM, first compound 0.000999 µM
[26] = second compound 3.16 µM, first compound 0.00316 µM
[27] = second compound 3.16 µM, first compound 0.00999 µM
[28] = second compound 3.16 µM, first compound 0.0316 µM
[29] = second compound 3.16 µM, first compound 0.0999 µM
[30] = second compound 3.16 µM, first compound 0.316 µM
[31] = second compound 10 µM, first compound 0.000999 µM
[32] = second compound 10 µM, first compound 0.00316 µM
[33] = second compound 10 µM, first compound 0.00999 µM
[34] = second compound 10 µM, first compound 0.0316 µM
[35] = second compound 10 µM, first compound 0.0999 µM
[36] = second compound 10 µM, first compound 0.316 µM
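Further: spheroids exposed to the agents for seven days before readout.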
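Wherever viability, T/C is given: percent viability relative to DMSO vehicle control wells = 100%.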

## Cn1ncnc1[C@H]1c2n[nH]c(=O)c3cc(F)cc(c23)N[C@@H]1c1ccc(F)cc1 + Cc1[nH]c2ccc(F)cc2c1-c1nc2c3cccnc3c3ncccc3c2[nH]1
Second compound 0.0316 µM
  IC50: > 316 nM
Second compound 0.1 µM
  IC50: > 316 nM
Second compound 0.316 µM
  IC50: > 316 nM
Second compound 1 µM
  IC50: > 316 nM
Second compound 3.16 µM
  IC50: > 316 nM
Second compound 10 µM
  IC50: > 316 nM
[1]
  viability, T/C: 93.7%
[2]
  viability, T/C: 105%
[3]
  viability, T/C: 117%
[4]
  viability, T/C: 90.2%
[5]
  viability, T/C: 88.3%
[6]
  viability, T/C: 101%
[7]
  viability, T/C: 101%
[8]
  viability, T/C: 103%
[9]
  viability, T/C: 88.1%
[10]
  viability, T/C: 92.7%
[11]
  viability, T/C: 118%
[12]
  viability, T/C: 96.2%
[13]
  viability, T/C: 92.8%
[14]
  viability, T/C: 108%
[15]
  viability, T/C: 113%
[16]
  viability, T/C: 94%
[17]
  viability, T/C: 98.2%
[18]
  viability, T/C: 105%
[19]
  viability, T/C: 86.7%
[20]
  viability, T/C: 105%
[21]
  viability, T/C: 87.1%
[22]
  viability, T/C: 112%
[23]
  viability, T/C: 112%
[24]
  viability, T/C: 102%
[25]
  viability, T/C: 95.3%
[26]
  viability, T/C: 88.2%
[27]
  viability, T/C: 96.3%
[28]
  viability, T/C: 84.6%
[29]
  viability, T/C: 88.6%
[30]
  viability, T/C: 118%
[31]
  viability, T/C: 96.7%
[32]
  viability, T/C: 111%
[33]
  viability, T/C: 84%
[34]
  viability, T/C: 95.7%
[35]
  viability, T/C: 108%
[36]
  viability, T/C: 99.5%

## CCc1c2c(nc3ccc(O)cc13)-c1cc3c(c(=O)n1C2)COC(=O)[C@]3(O)CC + Cc1cnc(CNC(=O)c2c(=O)c3ccc(N4CCCN(C)CC4)nc3n3c2sc2ccccc23)cn1
Second compound 0.0316 µM
  IC50: > 316 nM
Second compound 0.1 µM
  IC50: > 316 nM
Second compound 0.316 µM
  IC50: > 316 nM
Second compound 1 µM
  IC50: > 316 nM
Second compound 3.16 µM
  IC50: 142 nM
Second compound 10 µM
  IC50: < 0.999 nM
[1]
  viability, T/C: 102%
[2]
  viability, T/C: 95.6%
[3]
  viability, T/C: 68.3%
[4]
  viability, T/C: 70.9%
[5]
  viability, T/C: 76.7%
[6]
  viability, T/C: 62.3%
[7]
  viability, T/C: 95.5%
[8]
  viability, T/C: 107%
[9]
  viability, T/C: 76.5%
[10]
  viability, T/C: 71.2%
[11]
  viability, T/C: 65.5%
[12]
  viability, T/C: 60.2%
[13]
  viability, T/C: 93.8%
[14]
  viability, T/C: 95.4%
[15]
  viability, T/C: 72.4%
[16]
  viability, T/C: 67.8%
[17]
  viability, T/C: 68.2%
[18]
  viability, T/C: 60.5%
[19]
  viability, T/C: 76.4%
[20]
  viability, T/C: 79.8%
[21]
  viability, T/C: 77.5%
[22]
  viability, T/C: 74.8%
[23]
  viability, T/C: 54.6%
[24]
  viability, T/C: 63.4%
[25]
  viability, T/C: 77.6%
[26]
  viability, T/C: 68%
[27]
  viability, T/C: 64%
[28]
  viability, T/C: 59%
[29]
  viability, T/C: 56%
[30]
  viability, T/C: 43%
[31]
  viability, T/C: 0.47%
[32]
  viability, T/C: 20.1%
[33]
  viability, T/C: 34.8%
[34]
  viability, T/C: 11.9%
[35]
  viability, T/C: 0.39%
[36]
  viability, T/C: 0.32%
